From patent US20200308619A1, “GENE CONSTRUCT AND BIOSENSOR FOR THE RAPID DETECTION OF AHL MOLECULES AND THE PATHOGENIC BACTERIA THAT PRODUCE SAME” (UNIVERSIDAD DE VALPARAISO, priority 2017, published 2020) come the findings set out here.

The subject of the experiment is E. coli pUCPAO1RHL biosensor strain. In words: Biosensor fluorescence emission (GFP) in response to AHL extract and copper. It counts as cell-based, Escherichia coli. To be noted: copper by itself, no AHL. On the procedure:
The biosensing strain named E. coli pUCPAO1RHL that contains the gene construct of the invention, was used to evaluate its response to the presence of AHLs and the presence of copper. For the evaluation, AHLs were obtained from the bacterium Pseudomonas aeruginosa from a 12-hour bacterial culture in late exponential phase. For this, the supernatant was separated from the bacterial cells by centrifugation at 8,000 rpm for 15 minutes. An organic extraction with dichloromethane (DCM) from the supernatant was performed in a ratio of 70:30 (Supernatant: DCM). For this, 200 ml of supernatant and 85 ml of DCM were incorporated into a […] volume decantation flask. It was stirred vigorously, then left to settle at room temperature for 1 hour. […]
The biosensor strain (180 μL) was grown in the presence of 10 μL of AHL extract (obtained from the stationary phase of growth of P. aeruginosa) and in the presence of 500 μM of copper (such as CuSO4) in Luria Bertani liquid medium at 37° C. stirred in 96-well plates on a temperature controlled orbital shaker spectrofluorometer equipment (Tecan USA). During growth, turbidity was recorded at an absorbance of 600 nm and fluorescence at […] every 15 minutes, equivalent to one cycle of fluorescence emission measurement. […]

Consider `O=S(=O)([O-])[O-].[Cu+2]` [copper, CuSO4], for which the “inducing effect on fluorescence” value is reported as “did not show an obvious inducing effect of fluorescence”.
